Data taken from US20080220072A1, “BIOLOGIC MODULATIONS WITH NANOPARTICLES” (priority 2002, published 2008).

How the values were obtained:
[1] = tested on: SCC-15; assay: Growth inhibition in chemoresistant head neck cancer cell line; type: cell-based, human
Description: Antisense molecules were tested for growth inhibition against the chemoresistant head neck cancer cell line SCC-15 at 10,000 cells per well, the cells being pretreated with tenascin, with results as shown in FIG. 5B-C. Referring to FIG. 5B, PO refers to phosphodiester antisense referred to as asCK2 in Table 9 (SEQ ID NO 1), PO sense refers to phosphodiester sense sequence complementary to asCK2, siRNA refers to a duplex RNA sequence that is screened from the asCk2 sequence, 2OME RNA refers to a nucleic acid of the sequence SEQ ID NO 1 that is all RNA and is al methylated, and PO RNA refers to a proprietary chimeric molecule having the sequence of SEQ ID NO 1 but being a mixture of RNA and DNA and having phosphodiester and 2OME backbone. […] Because of it's capacity for being metabolized, the PO RNA construct within the context of a colloidal formulation will offer advantages in safety for delivery of cytotoxic constructs.
Referring to FIG. 5C, cisplatin TN/x s-50 refers to nanoparticles comprising cisplatin and a 1:1 w/w ratio of tenascin:dextran. Tn s-50 refers to nanoparticles comprising cisplatin and tenascin, asCK2 TN s-50 refers to nanoparticles comprising tenascin and asCK2 antisense of sequence SEQ ID NO 1, and free cisplatin refers to cisplatin added to the cell medium.

[2] = tested on: metastatic variant of Alva-41 prostate carcinoma cells; assay: Growth inhibition by nanoencapsulated cisplatin; type: cell-based, human; conditions: 5,000 cells per well, 72 hours
Description: Cisplatin was nanoencapsulated into the various candidate tumor binding agents as described previously and nanoparticles were compared for growth inhibition in a metastatic variant of Alva-41 prostate carcinoma cells and Ca-9-22. Formulas were tested in duplicate in two separate experiments. Results are illustrated for the prostate cell line in FIG. 5D. Referring to FIG. 5D, PEX-MMP-1/Cisplatin refers to s50 nanoparticles comprising cisplatin and the Recombinant Pex binding domain of membrane-associated Matrix Metalloproteinase-1 (see Bello et. al, Cancer Research (2001) 61: 8730-36); Tenascin/Cisplatin refers to s50 nanoparticles having tenascin and cisplatin, FN-PHSCN/Cisplatin refers to nanoparticles comprising the FN-PHSCN fragment and cisplatin, Osteonecetin/asCK2 refers to s50 nanoparticles comprising osteonectin and the asCK2 antisense sequence, galectin-3/cisplatin refers to s50 nanoparticles comprising galectin-3 and cisplatin, hyaluronan/cisplatin refers to s50 nanoparticles comprising hyaluronan and cisplatin, and naked cisplatin refers to the addition of free cisplatin to the cell medium. In these experiments cells were plated at 5,000 per well and followed for 72 hours. […] As a comparison, based on a standard male patient, an acceptable in vitro dose of cisplatin would correspond to about 10 μg/ml or 30 μM. […]

[3] = tested on: cancer cells; assay: Growth inhibition, MTT/WST assay, antisense backbones; type: cell-based; conditions: maximal kill, 72 hours post treatment
Description: The efficacies of various nucleic acid backbone chemistries were investigated by delivering […] to cancer cells in organ culture using a collection of nanoparticles that were less than about 50 nm in diameter. Recurrent head neck tumors are typically small (1-2 cm), but based on volumetric scaling between in vitro tumor nests and mouse studies, it is estimated that estimate that a dose of 3 5 mg will be required to locally treat a 2 cm tumor. Various nucleic acid chemistries may reduce this amount by either enhancing binding affinity between the target mRNA and the antisense, using the antisense to bind to DNA instead of RNA, or increasing nuclease resistance (and half-life). […] Biological activity was assayed as growth inhibition using the MTT/WST assay in a 96 well format. Cells were seeded at 20,000 per well, treated 18 hours later, then assayed at 72 hours post treatment. Although the cells are resistant to conventional chemotherapeutic agents, cisplatin activity is shown for reference (black line). […] Additional formats screened but not shown were a phosphodiester/2OME chimeric and the siRNA format.

[4] = tested on: hormone-insensitive PC3 cells; assay: Growth inhibition in prostate carcinoma cells; type: cell-based; conditions: PC3, 5,000 cells per untreated well
Description: (§1) In these studies, cells were seeded at 5,000 cells per untreated well.

[5] = tested on: hormone-sensitive Alva-41 prostate carcinoma cells; assay: Growth inhibition in prostate carcinoma cells; type: cell-based, human; conditions: Alva-41, 5,000 cells per untreated well
Description: as §1

## PO RNA: chimeric molecule with sequence of SEQ ID NO 1, mixture of RNA and DNA, phosphodiester and 2OME backbone (antisense GTCCCGACATGTCAGACAGG; RNA/DNA chimera, phosphodiester and 2'-O-methyl, chemistry not fully specified)
[1]; SCC-15, 10,000 cells per well, pretreated with tenascin
  IC50: 3 µM

## N.N.[Cl][Pt][Cl] [free cisplatin, cisplatin, reference compound]
[2]
  IC50: 100 µM
[1]; SCC-15, FIG. 5C
  overall in vitro kill: zero

## 2-0 methyl RNA format: nucleic acid of the sequence SEQ ID NO 1 that is all RNA and methylated, in s50 nanoparticles (GTCCCGACATGTCAGACAGG; all 2'-O-methyl, backbone and T or U not given here; formulated in s50 nanoparticles)
[3]
  complete kill achieved in vitro: capacity for complete kill

## SEQ ID NO 1: GTCCCGACATGTCAGACAGG; phosphodiester antisense 20mer to CK2α translation start site (antisense GTCCCGACATGTCAGACAGG; all phosphodiester, sugars by position and methylation of C not given here)
[4]
  IC50: 40 µM
[5]
  IC50: 15 µM
